These results are taken from ChEMBL document CHEMBL1150688, “Guieranone A, a naphthyl butenone from the leaves of Guiera senegalensis with antifungal activity” (2003).

This assay deals with Cladosporium cucumerinum. Briefly: Antifungal activity against Cladosporium cucumerinum assessed as drug level causing inhibition of fungal growth after 2 days by TLC based bioautography. It counts as functional.

Molecules are shown by their SMILES. Calls of active or inactive are those of the source. The calls are words filed in the database; no cut-off is given here.

For the compound `COc1cc(OC)c2c3c(c(OC)cc2c1)C(=O)CC(C)O3` (stereo not drawn), the result was inactive.
For the compound `C/C=C/C(=O)c1c(OC)cc2cc(OC)cc(OC)c2c1OC` [GUIERANONE A], the INH is 1 µg.
Take `COc1cc(OC)c2c(c1)cc(OC)c1c(=O)cc(C)oc12`: the outcome was inactive.
